Biological target: DNA-PK (Homo sapiens, UniProt P78527)
Experiment: DNA-PK inhibition assay (radiometric, 33P-ATP)
Format: biochemical
Details: 100 μM ATP, competitive tight-binding fit
Outline: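 Approx. 6 nM DNA-PK with 10 µg/mL sheared dsDNA, 0.8 mg/mL peptide substrate and 100 µM 33P-ATP in HEPES pH 7.5, 10 mM MgCl2; 45 min, phosphoric acid quench. Phosphopeptide captured on filter plates and counted by scintillation; Ki from a competitive tight-binding model fit.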

| SMILES | Ki |
| --- | --- |
| CNC(=O)c1c(F)cnc2c([C@H](C)CNc3cc(-c4ccc(OCC5CC5)nc4)ncn3)cccc12 [Compound 896] | < 30 nM |
| COc1ccccc1[C@H](C)CNc1cc(-c2ccc(N3CCN(C)CC3)nc2)ncn1 [Compound 32, (S)—N-(2-(2-Methoxyphenyl)propyl)-6-(6-(4-methylpiperazin-1-yl)pyridin-3-yl)pyrimidin-4-amine] | < 30 nM |
| COc1ccccc1[C@H](C)CNc1cc(-c2cnc(C)nc2)ncn1 [Compound 138] | < 30 nM |
| CC(CNc1cc(-c2ccc(N3CCN(C)CC3)nc2)ncn1)c1ccc(F)cc1OC1CC1 (stereo not drawn) [Compound 271] | < 30 nM |
| COc1cscc1C(C)CNc1cc(-c2ccc(C)nc2)ncn1 (stereo not drawn) [Compound 144] | < 30 nM |
| CNC(=O)c1ccnc2c([C@H](C)CNc3cc(-c4ccc(OC)cc4)ncn3)cccc12 [Compound 682] | < 30 nM |
| COCCn1ncc2cc(-c3cc(NCC(C)c4cscc4OC)ncn3)cnc21 (stereo not drawn) [Compound 227] | < 30 nM |
| Cc1ccc(-c2cc(NC[C@@H](C)c3ccnc4cc(C)oc34)ncn2)cn1 [Compound 563] | < 30 nM |
| C=C(CNc1cc(-c2ccc(C)nc2)ncn1)c1cccc2c(C(=O)NC)ccnc12 [Compound 467] | < 30 nM |
| CNC(=O)c1ccc([C@H](C)CNc2cc(-c3ccc(NCCCOC)nc3)ncn2)c(OC)c1 [Compound 375] | < 30 nM |
| COc1sccc1C(C)CNc1cc(-c2ccc(C)nc2)ncn1 (stereo not drawn) [Compound 257] | < 30 nM |
| CNC(=O)c1ccnc2c([C@H](C)CNc3cc(-c4cnc5c(c4)COC5)ncn3)ccc(F)c12 [Compound 967] | < 30 nM |
| CNC(=O)c1ccnc2c([C@H](C)CNc3cc(-c4cnc(C(C)C)nc4)ncn3)cccc12 [Compound 849] | < 30 nM |
| CNC(=O)c1ccnc2c([C@H](C)CNc3cc(-c4ccc(N5Cc6ccncc6C5)nc4)ncn3)cccc12 [Compound 718] | < 30 nM |
| CNC(=O)c1ccc([C@H](C)CNc2cc(-c3ccnc4c3ccn4C3COC3)ncn2)c(OC)c1 [Compound 479] | < 30 nM |
| CNCCNc1ccc(-c2cc(NC[C@@H](C)c3ccc(C(=O)NC)cc3OC)ncn2)cn1 [Compound 469] | < 30 nM |
| CNC(=O)c1ccc(C(C)CNc2cc(-c3cn(C4COC4)c4ncc(F)cc34)ncn2)c(OC)c1 (stereo not drawn) [Compound 449] | < 30 nM |
| CNC(=O)c1ccnc2c([C@H](C)CNc3cc(-c4ccc(C#N)nc4)ncn3)ccc(F)c12 [Compound 909] | < 30 nM |
| C[C@H](CNc1cc(-c2cnc3c(cnn3CC(O)CO)c2)ncn1)c1ccnc2c1OCC2 (single isomer, unassigned) [Compound 436] | < 30 nM |
| CNC(=O)c1ccnc2c([C@H](C)CNc3cc(-c4cnnc(C)c4)ncn3)cccc12 [Compound 841] | < 30 nM |
| C[C@H](CNc1cc(-c2ccc(N(C)C)nc2)ncn1)c1ccnc2c1OCCO2 [Compound 460] | < 30 nM |
| CNC(=O)c1ccnc2c([C@H](C)CNc3cc(-c4cnc(C(C)(C)OC)nc4)ncn3)ccc(F)c12 [Compound 929] | < 30 nM |
| CNC(=O)c1c(F)cnc2c([C@H](C)CNc3cc(-c4cnc(OC(C)C)nc4)ncn3)cccc12 [Compound 938] | < 30 nM |
| CCNc1ccc(-c2cc(NC[C@@H](C)c3ccc(C(=O)NC)cc3OC)ncn2)cn1 [Compound 360] | < 30 nM |
| CNC(=O)c1ccnc2c([C@H](C)CNc3cc(-c4ccc(NCc5nc6ccccc6[nH]5)nc4)ncn3)cccc12 [Compound 710] | < 30 nM |
| CNC(=O)c1ccnc2c([C@H](C)CNc3cc(-c4cnc5c(c4)OCCO5)ncn3)ccc(F)c12 [Compound 936] | < 30 nM |
| CNC(=O)c1ccnc2c([C@H](C)CNc3cc(-c4ccnc(N)c4)ncn3)cccc12 [Compound 876] | < 30 nM |
| C[C@H](CNc1cc(-c2cnc3c(cnn3CCO)c2)ncn1)c1cccc2c(C(F)F)c(F)cnc12 [Compound 814] | < 30 nM |
| CNC(=O)c1ccc(C(C)CNc2cc(-c3cc4cnn(C5COC5)c4cc3C)ncn2)c(OC)c1 (stereo not drawn) [Compound 283] | < 30 nM |
| COc1cc(C(=O)NCC(F)F)ccc1C(C)CNc1cc(-c2ccc(C)nc2)ncn1 (stereo not drawn) [Compound 296] | < 30 nM |
